Patent US12492202B2, “Macrocyclic PAD4 inhibitors useful as immunosuppressant” (BRISTOL-MYERS SQUIBB COMPANY, priority 2020, dated 2025)

Each compound was assayed against human PAD4 (hPAD4) (Homo sapiens (Human), UniProt Q9UM07) (assay: RFMS Human PAD4 Functional Assay). Settings: rapid-fire mass spectrum (RFMS) assay; 5 nM hPAD4 enzyme, 250 μM BAEE, 30 min preincubation at 37° C.
Type: biochemical
Method: RFMS Human PAD4 Functional Assay: Compounds were solubilized in 100% DMSO to achieve a 10 mM compound concentration. Compound stock solutions were stored at RT. A series of dilutions were prepared in DMSO and mixed 8 times with 20 μL mixing volume. Final top concentration of compound in the assay is 50 μM. Final assay conditions were as follows: • Reaction volume: 26 μl • Assay buffer: 25 mM hepes, pH 7.5, 5 mM NaCl, 1 mM DTT, 0.2 mg/ml BSA, 0.01% CHAPS, 50 μM Calcium, and 5 μM TPEN • Final concentrations: 5 nM hPAD4 enzyme, 250 μM BAEE, and 0.5% DMSO • Total incubation time: 30 mins compound and enzyme preincubation at 37° C., 90 min enzyme/substrate reaction, 30 min reaction with phenyl glyoxal at 37° C. • Stop solution: 40 μl 5% TCA in ACN 0.13 μL of compound solution was added to 13 μL of 10 nM PAD4 in assay buffer. After 30 min 13 μl of 500 μM of BAEE was added in 25 mM hepes, pH 7.5, 5 mM NaCl, 1 mM DTT, 0.2 mg/ml BSA, 0.01% CHAPS, 50 μM Calcium, 5 μM TPEN was added and the reaction incubated for 90 min at 37° C. The enzymatic reaction was quenched by addition of 15 μl of 6.1N TCA, 100% Final Concentration is 20%, 35 μl of 8.5 mM phenyl glyoxal (final concentration 4 mM) is then added and the reaction is incubated for 30 min at 37° C. After 30 minutes the plates are spun down to remove all precipitate. The enzyme reaction was quenched with an equal volume of methanol containing internal standard (modified citrulline). Samples were loaded onto the Rapid Fire RF300 system (Agilent) wherein they were first sipped for 1000 ms and then directly loaded to a C18 separations cartridge using a mixture of acetonitrile containing 0.01% formic acid for 3000 ms desalting. The flow rate of the mobile phase was 1.5 ml/min. Once the samples were eluted from the cartridge, a mobile phase of acetonitrile containing 0.01% formic acid was used to move the samples into the mass spectrometer for 4000 ms at a flow rate of 1.25 ml/min/Sciex API5500 triple quadrupole mass spectrometer (Applied Biosystems) equipped with ESI was used to analyze the peptidyl citrulline and internal standard ions. MRM transition of product and internal standard were monitored at m/z 424.5 to 350.4 and m/z 293 to 247 respectively. The dwell time for each transition was set at 200 ms, and the ESI voltage was used at 5500 with a source temperature of 400° C. Extracted ion peaks for each transition were integrated using the Rapid Fire Integrator software. Peak area of analyte was normalized with internal standard).

Sequence of human PAD4 (hPAD4) (Q9UM07 whole entry): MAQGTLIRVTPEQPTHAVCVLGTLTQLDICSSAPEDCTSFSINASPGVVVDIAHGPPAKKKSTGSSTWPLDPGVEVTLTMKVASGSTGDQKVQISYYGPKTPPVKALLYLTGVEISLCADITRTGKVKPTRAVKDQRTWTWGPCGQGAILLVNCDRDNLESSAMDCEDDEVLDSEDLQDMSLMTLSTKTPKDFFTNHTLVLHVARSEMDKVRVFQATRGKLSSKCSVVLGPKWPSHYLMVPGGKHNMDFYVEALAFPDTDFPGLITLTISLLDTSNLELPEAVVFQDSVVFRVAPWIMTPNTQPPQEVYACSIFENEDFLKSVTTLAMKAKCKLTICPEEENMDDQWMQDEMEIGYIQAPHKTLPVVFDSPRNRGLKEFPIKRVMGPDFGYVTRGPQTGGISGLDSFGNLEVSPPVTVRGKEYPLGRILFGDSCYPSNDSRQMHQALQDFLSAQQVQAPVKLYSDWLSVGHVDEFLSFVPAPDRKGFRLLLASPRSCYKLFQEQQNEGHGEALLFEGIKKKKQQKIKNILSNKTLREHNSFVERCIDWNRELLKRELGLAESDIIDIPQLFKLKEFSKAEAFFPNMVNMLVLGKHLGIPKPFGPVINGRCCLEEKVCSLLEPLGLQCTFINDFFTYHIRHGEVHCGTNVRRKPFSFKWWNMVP

Q: How did the IC50 turn out when `COc1cc(C(=O)N2CC3CCC2[C@@H]3N)cc2nc3n(c12)Cc1ccn(n1)-c1ccccc1OCCCn1c-3cc2ccccc21` (stereo partly drawn) [Example 19, ((7R)-7-amino-2-azabicyclo[2.2.1]heptan-2-yl)((E)-2^7-methoxy-1^1H,2^1H,4^1H-6-oxa-2(2,1)-benzo[d]imidazola-1(2,1)-indola-4(3,1)-pyrazola-5(1,2)-benzenacyclononaphane-2^5-yl)methanone] was run?
A: 5 nM

Q: With `COc1cc(C(=O)N2C[C@H](N)C[C@@H](F)C2)cc2nc3n(c12)Cc1ccn(n1)-c1ccccc1OCCCn1c-3cc2ccccc21` [Example 20, ((3R,5R)-3-amino-5-fluoropiperidin-1-yl)((E)-2^7-methoxy-1^1H,2^1H,4^1H-6-oxa-2(2,1)-benzo[d]imidazola-l(2,1)-indola-4(3,1)-pyrazola-5(1,2)-benzenacyclononaphane-2^5-yl)methanone] as the compound, how does the IC50 read?
A: 13 nM

Q: Which IC50 does the source give for `COc1cc(C(=O)N2C[C@H](N)C[C@@H](F)C2)cc2nc3n(c12)Cc1cccc(c1)-c1ccccc1CCCCn1c-3cc2ccccc21` [Example 21, ((3R,5R)-3-amino-5-fluoropiperidin-1l-yl)(2^7-methoxy-1^1IH,2^1H-2(2,1)-benzo[d]imidazola-1(2,1)-indola-4(1,3),5(1,2)-dibenzenacyclononaphane-2^5-yl)methanone] here?
A: 191 nM

Q: How did the IC50 turn out when `COc1cc(C(=O)N2CC3CCC2[C@@H]3N)cc2nc3n(c12)Cc1cccc(c1)-c1ccccc1CCCCn1c-3cc2ccccc21` (stereo partly drawn) [Example 22, ((1R,4R,7R)-7-amino-2-azabicyclo[2.2.1]heptan-2-yl)(2^7-methoxy-1^1H,2^1H-2(2,1)-benzo[d]imidazola-1(2,1)-indola-4(1,3),5(1,2)-dibenzenacyclononaphane-2^5-yl)methanone] was run?
A: 53 nM

Q: Which IC50 does the source give for `COc1cc(C(=O)N2C[C@H](N)C[C@@H](F)C2)cc2nc3n(c12)Cc1cccc(c1)-c1ccccc1CCCCn1c-3cc2cccnc21` [Example 23, ((3R,5R)-3-amino-5-fluoropiperidin-1-yl)(2^7-methoxy-1^1H,2^1H,2(2,1)-dipyrrolo[2,3-b]pyridina-4(1,3),5(1,2)-dibenzenacyclononaphane-2^5-yl)methanone] here?
A: 109 nM

Q: `COc1cc(C(=O)N2C[C@H](N)C[C@@H](F)C2)cc2nc3n(c12)Cc1cc(F)cc(c1)-c1ccccc1CCCCn1c-3cc2cccnc21` [Example 25, ((3R,5R)-3-amino-5-fluoropiperidin-1-yl)(4^5-fluoro-2^7-methoxy-1^1H,2^1H-1,2(2,1)-dipyrrolo[2,3-b]pyridina-4(1,3),5(1,2)-dibenzenacyclononaphane-2^5-yl)methanone] was tested. Which IC50 did it give?
A: 31 nM

Q: How did the IC50 turn out when `COc1cc(C(=O)N2C[C@H](N)C[C@@H](F)C2)cc2nc3n(c12)Cc1cc(C#N)cc(c1)-c1ccccc1CCCCn1c-3cc2cccnc21` [Example 26, 2^5-((3R,5R)-3-amino-5-fluoropiperidine-1 carbonyl)-2^7-methoxy-1^1H,2^1H-1,2(2,1)-dipyrrolo[2,3-b]pyridina-4(1,3),5(1,2)-dibenzenacyclononaphane-4^5-carbonitrile] was run?
A: 21 nM

Q: Which IC50 does the source give for `COc1cc(C(=O)N2CC3CCC2[C@@H]3N)cc2nc3n(c12)Cc1cc(C#N)cc(c1)-c1ccccc1CCCCn1c-3cc2cccnc21` (stereo partly drawn) [Example 27, 2^5-((1R,4R,7R)-7-amino-2-azabicyclo[2.2.1]heptane-2-carbonyl)-2^7-methoxy-1^1H,2^1H-1,2(2,1)-dipyrrolo[2,3-b]pyridina-4(1,3),5(1,2)-dibenzenacyclononaphane-4^5-carbonitrile] here?
A: 49 nM

Q: `COc1cc(C(=O)N2C[C@H](N)C[C@@H](F)C2)cc2nc3n(c12)Cc1cc(C(N)=O)cc(c1)-c1ccccc1CCCCn1c-3cc2cccnc21` [Example 28, 2^5-((3R,5R)-3-amino-5-fluoropiperidine-1-carbonyl)-2^7-methoxy-1^1H,2^1H-1,2(2,1)-dipyrrolo[2,3-b]pyridina-4(1,3),5(1,2)-dibenzenacyclononaphane-4^5-carboxamide] was tested. Which IC50 did it give?
A: 62 nM
